{
  "source": "patent US20110021524A1",
  "about": "“COMPOSITIONS AND METHODS FOR TREATING CANCERS” (IRM LLC, priority 2008, published 2011)",
  "key": {"[1]": {"system": "panel of 80 diverse kinases", "conditions": "cited from earlier work"}, "Ba/F3.p210 cells": {"system": "Ba/F3.p210 cells", "test": "Selection for resistant Ba/F3.p210 clones", "format": "cell-based", "conditions": "1 μM imatinib or 5 or 10 μM GNF-2; day nine"}, "[2]": {"system": "BCR-ABL transformed cells", "conditions": "read-out: IC50, cellular activity against BCR-ABL transformed cells; cited from earlier work"}, "[3]": {"system": "40 other tyrosine kinases", "conditions": "cited from earlier work"}, "[4]": {"system": "T315I BCR-ABL transduced bone marrow", "format": "in vivo", "conditions": "b.i.d. nilotinib 50 mg/kg or GNF-5 75 mg/kg alone; seven days"}, "[5]": {"system": "T315I BCR-ABL transduced bone marrow", "test": "Survival study, T315I BCR-ABL bone marrow transplantation model", "format": "in vivo, mice", "conditions": "GNF-5 75 mg/kg b.i.d. or nilotinib 50 mg/kg b.i.d.; vehicle 22 days"}, "[6]": {"system": "Ba/F3 cells co-expressing BCR-ABL p210 and luciferase", "test": "In vivo efficacy in Ba/F3.p210 xenograft model", "parameters": "species or system SCID beige mice", "protocol": "Female SCID beige mice, 6-8 weeks of age (n=5 for each GNF-5-treated or vehicle control group) were injected via tail vein with 1×10^6 Ba/F3 cells co-expressing BCR-ABL p210 and luciferase. […] At days 5 and 7, bioluminescence was quantified using luciferin and an IVIS imaging system (Xenogen Corp., Alameda, Calif.).\nDisease was established in SCID beige mice by inoculation of Ba/F3 cells engineered to express wild-type p210 BCR-ABL and firefly luciferase, such that disease burden could be assessed after luciferin injection by non-invasive imaging using a Xenogen IVIS™ system. […] Responses were maintained within the 100 mg/kg group (T/C=17%) at day 7; however, the initial response to the 50 mg/kg b.i.d. regime was followed by a relapse (T/C of 66%) (FIG. 3A)."}, "[7]": {"system": "T315I BCR-ABL-mediated Stat5 phosphorylation", "test": "T315I BCR-ABL-mediated Stat5 phosphorylation by flow cytometry", "format": "cell-based"}, "[8]": {"system": "phospho-Stat5 (downstream BCR-ABL signaling)", "test": "In vivo target modulation, phospho-Stat5 in bone marrow of Ba/F3.p210-bearing mice", "conditions": "single dose 100 mg/kg; within 7 hours", "protocol": "Bone marrows were harvested after 3, 7 and 24 hours and were analyzed by flow cytometry for phospho-Stat5 levels using a specific phospho-Y694 antibody."}, "[9]": {"system": "p-Stat5 in T315I BCR-ABL expressing bone marrow cells", "test": "p-Stat5 positive bone marrow cells in T315I BCR-ABL transplantation model", "conditions": "end of efficacy study; nilotinib 50 mg/kg, GNF-5 75 mg/kg b.i.d. alone or combined"}, "[10]": {"test": "Pharmacokinetic parameters in mice", "format": "in vivo", "conditions": "for bioavailability / concentration at 7 h: Balb/c, po, 20 mg/kg; for AUC(0-inf): oral, 5 mg/kg intravenously or 20 mg/kg orally", "protocol": "The compound plasma concentration at any given time point was determined by Liquid Chromatography/Mass Spectrometry (LC/MS/MS). Pharmacokinetic parameters were calculated by non-compartmental regression analysis using Winnonlin 4.0 software (Pharsight, Mountain View, Calif., USA)."}, "[11]": {"system": "wild type BCR-ABL transduced bone marrow", "test": "Bone marrow transduction/transplantation model, wild type BCR-ABL", "format": "in vivo, Balb/c mice", "conditions": "50 mg/kg twice daily for seven days, from day 7 after transplantation"}, "CML": {"system": "CML", "conditions": "in vivo; cited from earlier work"}, "[12]": {"conditions": "male, mouse, plasma, Balb/c mice, oral 20 mg/kg"}},
  "note": "Counter-ions that a name gives are not always drawn. Like-named read-outs stand apart in the source and are kept apart here.",
  "data": [
    {"smiles": "NC(=O)c1cccc(-c2cc(Nc3ccc(OC(F)(F)F)cc3)ncn2)c1", "note": "[GNF-2, 3-[6-(4-Trifluoromethoxy-phenylamino)-pyrimidin-4-yl]-benzamide]", "values": [
      {"measurement": "inhibition of the biochemical activity of a panel of 80 diverse kinases", "setting": "[1]", "result": "did not inhibit"},
      {"measurement": "emergence of resistant colonies, single agent", "setting": "Ba/F3.p210 cells", "result": "emergence of resistant colonies"},
      {"measurement": "IC50", "setting": "[2]", "result": 0.14, "unit": "µM"},
      {"measurement": "inhibition of the activity of 40 other tyrosine kinases in cellular assays", "setting": "[3]", "result": "did not inhibit"}
    ]},
    {"smiles": "O=C(NCCO)c1cccc(-c2cc(Nc3ccc(OC(F)(F)F)cc3)ncn2)c1", "note": "[GNF-5, N-(2-hydroxyethyl)-3-(6-(4-(trifluoromethoxy)phenylamino)pyrimidin-4-yl)benzamide]", "values": [
      {"measurement": "response compared to the vehicle group", "setting": "[4]", "result": "no significant response"},
      {"measurement": "median survival", "setting": "[5]", "result": 28, "unit": "days"},
      {"measurement": "tumor/control (T/C)", "setting": "[6]; 50 mg/kg b.i.d. oral, day 7 (relapse)", "result": 66, "unit": "%"},
      {"measurement": "tumor/control (T/C)", "setting": "[6]; 50 mg/kg b.i.d. oral, fifth day", "result": 16, "unit": "%"},
      {"measurement": "tumor/control (T/C)", "setting": "[6]; 100 mg/kg b.i.d. oral, day 7", "result": 17, "unit": "%"},
      {"measurement": "tumor/control (T/C)", "setting": "[6]; 100 mg/kg b.i.d. oral, fifth day", "result": 7, "unit": "%"},
      {"measurement": "tolerability of efficacious doses in vivo", "setting": "[6]; 50 or 100 mg/kg b.i.d.", "result": "well-tolerated"},
      {"measurement": "effect on T315I BCR-ABL-mediated Stat5 phosphorylation", "setting": "[7]; 10 μM nilotinib or 1 μM GNF-5 alone, or the two combined", "result": "no effect"},
      {"measurement": "pStat5 levels in bone marrow", "setting": "[8]", "result": "Significant reduction"},
      {"measurement": "percentage of p-Stat5 positive BCR-ABL expressing bone marrow cells", "setting": "[9]", "result": "approx. 25%"},
      {"measurement": "T½", "setting": "[10]; Balb/c mice, oral 20 mg/kg", "result": "2.30 ± 0.10", "unit": "h"},
      {"measurement": "bioavailability", "setting": "[10]; male, mouse, plasma, Balb/c mice, 20 mg/kg oral vs 5 mg/kg intravenous, read-out: F (%)", "result": "44.8 ± 7.54", "unit": "%"},
      {"measurement": "concentration at 7 h", "setting": "[10]; male, mouse, plasma, Balb/c mice, oral 20 mg/kg, 7 hours, read-out: Clast", "result": "636 ± 121", "unit": "nM"},
      {"measurement": "concentration at 7 h", "setting": "[10]; male, mouse, plasma, oral 20 mg/kg, Balb-C mice, read-out: concentration after 7 hours", "result": "630 ± 120", "unit": "nM"},
      {"measurement": "bioavailability", "setting": "[10]; male, mouse, plasma, oral 20 mg/kg, Balb-C mice, read-out: oral bioavailability", "result": "44.8 ± 7.5", "unit": "%"},
      {"measurement": "AUC(0-inf)", "setting": "[10]; male, mouse, plasma, Balb/c mice, route not given, read-out: AUC_inf (hrs * nM)", "result": "11.6 ± 1.96", "unit": "µM·h"},
      {"measurement": "AUC(0-inf)", "setting": "[10]; male, mouse, plasma, Balb/c mice, route not given, read-out: AUC_inf (min * ug/mL) (converted)", "result": 4870, "unit": "ng·h/mL"},
      {"measurement": "Cmax", "setting": "[10]; [12]", "result": "4370 ± 1340", "unit": "nM"},
      {"measurement": "Tmax", "setting": "[10]; [12]", "result": 0.5, "unit": "h"},
      {"measurement": "Vd", "setting": "[10]; male, mouse, plasma, Balb/c mice, route not given, read-out: Vss", "result": "9.18 ± 1.82", "unit": "L/kg"},
      {"measurement": "half-life", "setting": "[10]; male, mouse, plasma, oral 20 mg/kg, Balb-C mice, read-out: terminal half-life (converted)", "result": 2.3, "unit": "h"},
      {"measurement": "maximum concentration", "setting": "[10]; oral 20 mg/kg, Balb-C mice", "result": "4.4 ± 1.3", "unit": "µM"},
      {"measurement": "time of maximum concentration", "setting": "[10]; oral 20 mg/kg, Balb-C mice", "result": 0.5, "unit": "h"},
      {"measurement": "peripheral blood cell counts", "setting": "[11]", "result": "normal blood cell counts"},
      {"measurement": "spleen weight", "setting": "[11]", "result": "normal spleen weights"}
    ]},
    {"smiles": "Cc1ccc(NC(=O)c2ccc(CN3CCN(C)CC3)cc2)cc1Nc1nccc(-c2cccnc2)n1", "note": "[Imatinib mesylate]", "values": [
      {"measurement": "response rates in CML", "setting": "CML", "result": "more than 96%"}
    ]},
    {"smiles": "Cc1cn(-c2cc(NC(=O)c3ccc(C)c(Nc4nccc(-c5cccnc5)n4)c3)cc(C(F)(F)F)c2)cn1", "note": "[nilotinib, reference compound]", "values": [
      {"measurement": "response compared to the vehicle group", "setting": "[4]", "result": "no significant response"},
      {"measurement": "median survival", "setting": "[5]", "result": 32, "unit": "days"},
      {"measurement": "effect on T315I BCR-ABL-mediated Stat5 phosphorylation", "setting": "[7]", "result": "no effect"},
      {"measurement": "percentage of p-Stat5 positive BCR-ABL expressing bone marrow cells", "setting": "[9]", "result": "approx. 25%"}
    ]}
  ]
}
